Source: patent publication US11377442B2, “Small molecule agonists and antagonists of NR2F6 activity” (ZANDER THERAPEUTICS, INC., priority 2016, dated 2022)
Where two headings read alike, the source gives them in different places.

Columns and labels:
NR2F6 = molecular target: T1, NR2F6 (Homo sapiens, UniProt P10588); experiment: NR2F6 agonist screening, Firefly signal cmpd/DMSO; assay type: cell-based
T1 construct: expressed in transfected cells; also transient transfection
T1 sequence (P10588 1-404): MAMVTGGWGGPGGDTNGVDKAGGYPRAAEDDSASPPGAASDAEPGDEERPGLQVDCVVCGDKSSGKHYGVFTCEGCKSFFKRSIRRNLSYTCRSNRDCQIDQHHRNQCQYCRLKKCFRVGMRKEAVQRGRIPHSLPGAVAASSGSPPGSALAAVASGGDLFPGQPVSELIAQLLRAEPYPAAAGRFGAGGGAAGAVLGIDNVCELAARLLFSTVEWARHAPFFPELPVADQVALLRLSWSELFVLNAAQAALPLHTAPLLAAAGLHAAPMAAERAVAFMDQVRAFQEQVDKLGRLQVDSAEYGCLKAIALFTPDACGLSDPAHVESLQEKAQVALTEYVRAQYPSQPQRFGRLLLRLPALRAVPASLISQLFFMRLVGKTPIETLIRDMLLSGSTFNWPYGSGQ

hCyt P450 [1] = molecular target: hCyt P450 (Homo sapiens, UniProt P33261); experiment: CYP inhibition; assay type: in vitro ADME; settings: CYP 2C19-Mephenytoin
hCyt P450 [2] = experiment: CYP inhibition; assay type: in vitro ADME, human
NR2F6 LBD = molecular target: T2, NR2F6 LBD (Homo sapiens, UniProt P10588); experiment: NR2F6 LBD transient transfection; assay type: cell-based
T2 construct: expressed in transfected cells
T2 sequence (P10588 165-393 limits assumed): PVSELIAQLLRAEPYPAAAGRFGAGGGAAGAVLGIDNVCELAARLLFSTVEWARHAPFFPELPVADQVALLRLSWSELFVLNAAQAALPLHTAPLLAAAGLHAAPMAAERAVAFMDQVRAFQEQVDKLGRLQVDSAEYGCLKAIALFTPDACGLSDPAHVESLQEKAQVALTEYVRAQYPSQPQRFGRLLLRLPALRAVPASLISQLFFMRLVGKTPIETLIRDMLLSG
How it was run: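 LBD-transfected cells treated at 40, 10, 2 and 0.5 μM (4 replicates); cytotoxicity measured in parallel, normalized to DMSO (0%) and zero signal (100%). Higher concentrations excluded where signal loss reflected toxicity.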

[3] = Microsomal stability in human liver microsomes; assay type: in vitro ADME
[4] = mouse, in vivo
HEK293 pGL4 = experiment: Firefly_pGL signal, cmpd/DMSO (pGL4 control cells); assay type: cell-based; settings: Homo sapiens
Renilla [5] = experiment: Renilla signal in NR2F6 agonist screening, cmpd/DMSO; assay type: cell-based; settings: Renilla
Renilla [6] = experiment: Renilla signal, LBD, cmpd/DMSO (NR2F6 LBD transfected cells); assay type: cell-based
[7] = read-out: Renilla F4, cmpd/DMSO (mean)
[8] = F4, 1% FBS, read-out: Renilla, F4, 1% FBS, cmpd/DMSO (mean)
[9] = F4, 10% FBS, read-out: Renilla, F4, 10% FBS, cmpd/DMSO (mean)

hCyt P450 (Homo sapiens, UniProt P33261), sequence (P33261 whole entry): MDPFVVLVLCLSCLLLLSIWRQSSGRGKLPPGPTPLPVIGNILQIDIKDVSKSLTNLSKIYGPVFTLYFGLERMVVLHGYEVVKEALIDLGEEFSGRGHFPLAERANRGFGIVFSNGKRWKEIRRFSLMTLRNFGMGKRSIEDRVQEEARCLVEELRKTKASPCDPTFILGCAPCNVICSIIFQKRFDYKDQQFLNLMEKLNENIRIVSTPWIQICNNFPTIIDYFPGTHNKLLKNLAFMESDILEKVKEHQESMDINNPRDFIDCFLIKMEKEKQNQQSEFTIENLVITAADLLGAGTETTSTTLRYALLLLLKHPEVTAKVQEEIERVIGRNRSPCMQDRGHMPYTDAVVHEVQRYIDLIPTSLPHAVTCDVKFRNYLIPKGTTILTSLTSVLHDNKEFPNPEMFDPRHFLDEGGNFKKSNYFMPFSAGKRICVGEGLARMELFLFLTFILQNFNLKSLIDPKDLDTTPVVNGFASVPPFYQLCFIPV

COCCN[C@H]1CS(=O)(=O)C[C@@H]1S(=O)(=O)c1ccc(Cl)cc1 [Compound D136]
Firefly F4, cmpd/DMSO (mean) (NR2F6; 0.5 uM): 1.5 | Firefly F4, cmpd/DMSO (mean) (NR2F6; 2 uM): 1.1 | Firefly F4, cmpd/DMSO (mean) (NR2F6; 10 uM): 2.7 | Firefly F4, cmpd/DMSO (mean) (NR2F6; 40 uM): 5.2 | F4, Firefly/Renilla for S/B(F4) > 3 (NR2F6; 1% FBS, 40 uM): 3.1 | Firefly, F4/pGL4 for S/B(F4) > 3 (NR2F6; 1% FBS, 40 uM): 4.7 | F4, Firefly/Renilla for S/B(F4) > 3 (NR2F6; 10% FBS, 40 uM): 3.5 | Firefly, F4/pGL4 for S/B(F4) > 3 (NR2F6; 10% FBS, 40 uM): 3.0 | Firefly, F4, 1% FBS, cmpd/DMSO (mean) (NR2F6; 1% FBS, 0.5 uM): 0.8 | Firefly, F4, 1% FBS, cmpd/DMSO (mean) (NR2F6; 1% FBS, 2 uM): 1.0 | Firefly, F4, 1% FBS, cmpd/DMSO (mean) (NR2F6; 1% FBS, 10 uM): 2.4 | Firefly, F4, 1% FBS, cmpd/DMSO (mean) (NR2F6; 1% FBS, 40 uM): 7.4 | Firefly, F4, 10% FBS, cmpd/DMSO (mean) (NR2F6; 10% FBS, 0.5 uM): 0.4 | Firefly, F4, 10% FBS, cmpd/DMSO (mean) (NR2F6; 10% FBS, 2 uM): 1.4 | Firefly, F4, 10% FBS, cmpd/DMSO (mean) (NR2F6; 10% FBS, 10 uM): 1.9 | Firefly, F4, 10% FBS, cmpd/DMSO (mean) (NR2F6; 10% FBS, 40 uM): 12 | activation of full-length NR2F6 (NR2F6; cellular assays): Activates | CYP inhibition conclusion (hCyt P450 [1]): no inhi- | IC50 (hCyt P450 [1]): > 10 µM | inhibition of 7 major isoforms of hCyt P450 (hCyt P450 [2]): no inhibition | Firefly LBD, cmpd/DMSO (mean) (NR2F6 LBD; 0.5 uM): 1.0 | Firefly LBD, cmpd/DMSO (mean) (NR2F6 LBD; 2 uM): 1.5 | Firefly LBD, cmpd/DMSO (mean) (NR2F6 LBD; 10 uM): 2.6 | Firefly LBD, cmpd/DMSO (mean) (NR2F6 LBD; 40 uM): 2.9 | activation of ligand binding domain-only NR2F6 (NR2F6 LBD; cellular assays): Activates | stability in presence of human liver microsomes [3]: Extremely stable | MTD and acute toxicity [4]: no toxicity was observed | fold induction at 0.5 µM (HEK293 pGL4; HEK293, 0.5 uM, read-out: Firefly pGL4, cmpd/DMSO (mean)): 1.1 | fold induction at 2 µM (HEK293 pGL4; HEK293, 2 uM, read-out: Firefly pGL4, cmpd/DMSO (mean)): 1 | fold induction at 10 µM (HEK293 pGL4; HEK293, 10 uM, read-out: Firefly pGL4, cmpd/DMSO (mean)): 1.8 | fold induction at 40 µM (HEK293 pGL4; HEK293, 40 uM, read-out: Firefly pGL4, cmpd/DMSO (mean)): 2.6 | fold induction at 0.5 µM (HEK293 pGL4; HEK293, pGL4, 1% FBS, 0.5 uM, read-out: Firefly, pGL4, 1% FBS, cmpd/DMSO (mean)): 1.1 | fold induction at 2 µM (HEK293 pGL4; HEK293, pGL4, 1% FBS, 2 uM, read-out: Firefly, pGL4, 1% FBS, cmpd/DMSO (mean)): 0.9 | fold induction at 10 µM (HEK293 pGL4; HEK293, pGL4, 1% FBS, 10 uM, read-out: Firefly, pGL4, 1% FBS, cmpd/DMSO (mean)): 1.3 | fold induction at 40 µM (HEK293 pGL4; HEK293, pGL4, 1% FBS, 40 uM, read-out: Firefly, pGL4, 1% FBS, cmpd/DMSO (mean)): 1.6 | fold induction at 0.5 µM (HEK293 pGL4; HEK293, pGL4, 10% FBS, 0.5 uM, read-out: Firefly, pGL4, 10% FBS, cmpd/DMSO (mean)): 1.3 | fold induction at 2 µM (HEK293 pGL4; HEK293, pGL4, 10% FBS, 2 uM, read-out: Firefly, pGL4, 10% FBS, cmpd/DMSO (mean)): 1.1 | fold induction at 10 µM (HEK293 pGL4; HEK293, pGL4, 10% FBS, 10 uM, read-out: Firefly, pGL4, 10% FBS, cmpd/DMSO (mean)): 1.8 | fold induction at 40 µM (HEK293 pGL4; HEK293, pGL4, 10% FBS, 40 uM, read-out: Firefly, pGL4, 10% FBS, cmpd/DMSO (mean)): 3.8 | fold induction at 0.5 µM (Renilla [5]; [7]): 0.9 | fold induction at 2 µM (Renilla [5]; [7]): 1.1 | fold induction at 10 µM (Renilla [5]; [7]): 1.4 | fold induction at 40 µM (Renilla [5]; [7]): 1.7 | fold induction at 0.5 µM (Renilla [5]; [8]): 1.1 | fold induction at 2 µM (Renilla [5]; [8]): 1.1 | fold induction at 10 µM (Renilla [5]; [8]): 1.5 | fold induction at 40 µM (Renilla [5]; [8]): 2.4 | fold induction at 0.5 µM (Renilla [5]; [9]): 0.9 | fold induction at 2 µM (Renilla [5]; [9]): 0.9 | fold induction at 10 µM (Renilla [5]; [9]): 1.2 | fold induction at 40 µM (Renilla [5]; [9]): 3.3 | Renilla LBD, cmpd/DMSO (mean) (Renilla [6]; 0.5 uM): 1.1 | Renilla LBD, cmpd/DMSO (mean) (Renilla [6]; 2 uM): 1.0 | Renilla LBD, cmpd/DMSO (mean) (Renilla [6]; 10 uM): 1.0 | Renilla LBD, cmpd/DMSO (mean) (Renilla [6]; 40 uM): 0.6
